Measured values: ChEMBL document CHEMBL5104171 (Bioorg Med Chem Lett, 2022)
Converted amounts (≈) assume the structure as drawn.

Assays:
[1] = Inhibition of RANKL-induced human osteoclast precursor cells differentiation in presence of human M-CSF and measured by tartrate-resistant acid phosphatase activity assay; assay type: functional, cell-based
[2] = Plasma protein binding in mouse; assay type: ADME, cell-free; details: read-out: PPB (converted)
[3] = Metabolic stability in human liver microsomes assessed as compound remaining at 60 mins; assay type: ADME, Microsome; details: read-out: Stability
[4] = Plasma concentration in DBA/1 mouse at 15 mg/kg, po administered once daily for 6 days and measured at 12 hrs; assay type: ADME, organism-based; details: time 6 day
[5] = Plasma concentration in DBA/1 mouse at 15 mg/kg, po administered once daily for 6 days and measured at 4 hrs; assay type: ADME, organism-based; details: time 6 day
[6] = Plasma protein binding in human; assay type: ADME, cell-free; details: read-out: PPB (converted)
animal or person [7] = details: Mus musculus, DBA/1, 144 h, read-out: INH
animal or person [8] = details: Mus musculus, DBA/1, 144 h, read-out: INH; remark: listed apart in the source
[9] = Plasma concentration in DBA/1 mouse at 15 mg/kg, po administered once daily for 6 days and measured at 18 hrs; assay type: ADME, organism-based; details: time 6 day
[10] = Plasma concentration in DBA/1 mouse at 15 mg/kg, po administered once daily for 6 days and measured at 8 hrs; assay type: ADME, organism-based; details: time 6 day
animal or person [11] = details: Mus musculus, DBA/1, 144 h, read-out: INH; remark: listed apart in the source
[12] = Permeability across apical to basolateral side in human Caco-2 cells; assay type: ADME, cell-based; details: read-out: permeability
animal or person [13] = details: Mus musculus, DBA/1, 144 h, read-out: INH; remark: listed apart in the source
animal or person [14] = details: Mus musculus, DBA/1, 144 h, read-out: INH; remark: listed apart in the source
[15] = Aqueous solubility of compound at pH 7.4; assay type: physicochemical
animal or person [16] = details: Mus musculus, DBA/1, 144 h, read-out: INH; remark: listed apart in the source
[17] = Plasma concentration in DBA/1 mouse at 15 mg/kg, po administered once daily for 6 days and measured at 2 hrs; assay type: ADME, organism-based; details: time 6 day
animal or person [18] = details: Mus musculus, DBA/1, 144 h, read-out: INH; remark: listed apart in the source
[19] = Plasma concentration in DBA/1 mouse at 15 mg/kg, po administered once daily for 6 days and measured at 24 hrs; assay type: ADME, organism-based; details: time 6 day
[20] = Plasma concentration in DBA/1 mouse at 15 mg/kg, po administered once daily for 6 days and measured at 6 hrs; assay type: ADME, organism-based; details: time 6 day
[21] = Metabolic stability in mouse liver microsomes assessed as compound remaining at 60 mins; assay type: ADME, Microsome; details: read-out: Stability
[22] = molecular target: Hepatocyte growth factor receptor (Homo sapiens, UniProt P08581); assay: Inhibition of N-terminal His-Glu-TEV-tagged MET (unknown origin) (1050 to 1360 residues) measured by spectrophotometric analysis
Sequence of Hepatocyte growth factor receptor (P08581 whole entry, the tested form may be a part): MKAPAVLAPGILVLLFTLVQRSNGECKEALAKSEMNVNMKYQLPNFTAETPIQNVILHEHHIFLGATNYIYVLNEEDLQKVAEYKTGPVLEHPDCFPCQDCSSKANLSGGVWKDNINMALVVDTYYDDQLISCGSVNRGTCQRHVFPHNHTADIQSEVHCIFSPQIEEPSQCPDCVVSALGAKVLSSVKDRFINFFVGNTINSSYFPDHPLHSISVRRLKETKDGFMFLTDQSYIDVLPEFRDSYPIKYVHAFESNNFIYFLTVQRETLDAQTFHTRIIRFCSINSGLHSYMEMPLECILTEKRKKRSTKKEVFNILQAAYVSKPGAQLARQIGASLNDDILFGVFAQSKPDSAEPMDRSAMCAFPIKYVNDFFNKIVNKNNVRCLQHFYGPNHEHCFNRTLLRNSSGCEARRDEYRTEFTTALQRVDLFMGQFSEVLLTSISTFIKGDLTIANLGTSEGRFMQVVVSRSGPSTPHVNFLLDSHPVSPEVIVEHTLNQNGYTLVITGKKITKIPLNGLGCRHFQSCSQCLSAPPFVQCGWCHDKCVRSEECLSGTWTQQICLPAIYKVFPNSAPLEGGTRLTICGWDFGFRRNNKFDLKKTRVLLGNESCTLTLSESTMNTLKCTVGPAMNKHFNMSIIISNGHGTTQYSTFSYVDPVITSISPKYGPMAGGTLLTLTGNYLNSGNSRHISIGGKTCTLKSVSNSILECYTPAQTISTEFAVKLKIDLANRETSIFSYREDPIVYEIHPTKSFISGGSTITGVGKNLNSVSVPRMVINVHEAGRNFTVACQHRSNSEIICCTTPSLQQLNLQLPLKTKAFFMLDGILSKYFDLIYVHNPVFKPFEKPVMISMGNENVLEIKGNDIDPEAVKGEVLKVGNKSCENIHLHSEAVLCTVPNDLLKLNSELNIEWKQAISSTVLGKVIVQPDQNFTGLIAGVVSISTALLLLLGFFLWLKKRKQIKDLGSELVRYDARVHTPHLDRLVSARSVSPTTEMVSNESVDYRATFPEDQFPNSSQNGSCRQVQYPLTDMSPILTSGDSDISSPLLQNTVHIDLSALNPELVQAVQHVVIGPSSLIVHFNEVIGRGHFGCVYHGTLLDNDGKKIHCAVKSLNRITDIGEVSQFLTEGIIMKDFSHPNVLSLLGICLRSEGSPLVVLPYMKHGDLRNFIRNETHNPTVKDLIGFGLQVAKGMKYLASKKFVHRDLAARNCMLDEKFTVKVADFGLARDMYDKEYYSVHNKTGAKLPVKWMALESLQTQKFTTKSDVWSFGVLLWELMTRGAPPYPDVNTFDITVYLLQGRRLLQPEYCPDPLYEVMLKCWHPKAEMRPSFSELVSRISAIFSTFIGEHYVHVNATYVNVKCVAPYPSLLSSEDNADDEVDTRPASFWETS

CN(C)CC(=O)N1CCC(c2ccc(NC(=O)c3nc(C#N)c[nH]3)c(C3=CCCCC3)c2)CC1
IC50 [1]: 1.7 nM

Cc1nc(NC(=O)NC(=O)C(C)(C)C)ccc1Oc1ccnc(-c2cnn(C)c2)c1
fraction unbound [2]: 0.041 | remaining at 1 h [3]: 100% | concentration at 144 h [4]: 163 ng/mL | concentration at 144 h [5]: 1860 ng/mL | fraction unbound [6]: 0.023 | inhibition in vivo at 15 mg/kg (animal or person [7]): 14% | inhibition in vivo at 15 mg/kg (animal or person [8]): 18% | concentration at 144 h [9]: 125 ng/mL | concentration at 144 h [10]: 1350 ng/mL | inhibition in vivo at 15 mg/kg (animal or person [11]): -4% | Papp A→B [12]: 13.9 ×10⁻⁶ cm/s | inhibition in vivo at 15 mg/kg (animal or person [13]): 89% | inhibition in vivo at 15 mg/kg (animal or person [14]): 75% | solubility [15]: 95.6 µM (≈ 39 µg/mL) | inhibition in vivo at 15 mg/kg (animal or person [16]): 88% | concentration at 144 h [17]: 2250 ng/mL | inhibition in vivo at 15 mg/kg (animal or person [18]): 94% | concentration at 144 h [19]: 86 ng/mL | concentration at 144 h [20]: 1430 ng/mL | remaining at 1 h [21]: 91%

FC(F)(F)c1ccc(CNc2ccc(Cc3c[nH]c4ncc(Cl)cc34)cn2)cn1 [PEXIDARTINIB]
IC50 [22]: > 3300 nM
